Several values for one entry are separate records, joined by “and”; a condition that tells them apart may be missing. Equal values may be shown once.
How the values were obtained:
Ehrlich Tumor (solid) = format: in vivo, Swiss mice
Procedure: Ehrlich ascites carcinoma (EAC) cells were collected from the peritoneal cavity of the Swiss mice harbouring 8-10 days old ascitic tumor. 1x10^7 EAC cells were injected intramuscularly in right thigh of Swiss male mice selected for the experiment on day 0. The next day, animals were randomized and divided into different groups. Two treatment groups contained 7 animals each and one control group contained 10 animals. The first treatment group was given compound 2 (20 mg/kg i/p) from day 1-9. The second treatment group was treated with 5-fluorouracil (22 mg/kg, i.p) from day 1-9 and it served as positive control. The control group was similarly administered normal saline (0.2 ml, i.p.) from day 1-9. On day 9 & 13, tumor bearing thigh of each animal was shaved and longest and shortest diameters of the tumor were measured with the help of vernier caliper. Tumor weight of each animal was calculated using the following formula. Tumor weight (mg) = (Length(mm) × ([width(mm)])^2)/(2) [formula]
The percent tumor growth inhibition was calculated on day 13 by comparing the average values of treated groups with that of control group. Tumor growth in saline treated control animals was taken to be 100%. Table 6. In-vivo anticancer activity of 2 against Ehrlich ascites carcinoma (solid)

HCT-116 (Colon) = test: Sulforhodamine B cytotoxicity assay; format: cell-based; conditions: Homo sapiens, HCT-116, 48 h, read-out: Human cancer cell lines IC50 HCT-116 (Colon)
Procedure: (§1) The benzyl compounds were evaluated by Sulforhodamine B Assay as per reported method [Skehan etal., J. Natl. Cancer Inst.1990, 82, 1107]. The human cancer cell lines procured from National Cancer Institute, Frederick, U. S. A. were used in present study. Cells were grown in tissue culture flasks in complete growth medium (RPMI-1640 medium with 2 mM glutamine, pH 7.4 supplemented with 10% fetal bovine serum, 100 µg/ml streptomycin and 100 units/ml penicillin) in a carbon dioxide incubator (37°C, 5% CO2, 90% RH). The cells at subconfluent stage were harvested from the flask by treatment with trypsin (0.05% in PBS (pH 7.4) containing 0.02% EDTA). Cells with viability of more than 98%, as determined by trypan blue exclusion, were used for determination of cytotoxicity. The cell suspension required concentration of cells was prepared in complete growth medium. Stock solution of 2x10^-2 M of compounds were prepared in DMSO and further dilution was carried out complete growth medium containing 50µg/ml of gentamycin to obtained working test solution of required concentration. In vitro cytotoxicity against various human cancer cell lines was determined using 96-well cell culture plates. The 100µl of cell suspension was added to each well of the 96-well cell culture plates. The cells were allowed to grow in CO2 incubator (37°C, 5% CO2, 90% RH) for 24 hours. The test materials in complete growth medium (100 µl) were added after 24 hours incubation to the wells containing cell suspension. The plates were further incubated for 48 hours (37°C in an atmosphere of 5% CO2 and 90% relative humidity) in a carbon dioxide incubator after addition of test material and then the cell growth was stopped by gently layering trichloroacetic acid (50% TCA, 50 µl) on top of the medium in all the wells. The plates were incubated at 4°C for one hour to fix the cells attached to the bottom of the wells. The liquid of all the wells was gently pipetted out and discarded. The plates were washed five times with distilled water to remove TCA, growth medium low molecular weight metabolites, serum proteins etc. and air - dried. Cell growth was measured by staining with sulforhodamine B dye. The adsorbed dye was dissolved in Tris-HCl Buffer (100 µl/well, 0.01M, pH 10.4) and plates were gently stirred for 10 minutes on a mechanical stirrer. The optical density (OD) was recorded on ELISA reader at 540nm. Paclitaxel (Taxol), and 5-Fluorouracil were used as positive controls (Standard drugs).

THP-1 (Leukemia) = test: Sulforhodamine B cytotoxicity assay; format: cell-based; conditions: Homo sapiens, THP-1, 48 h, read-out: Human cancer cell lines IC50 THP-1 (Leukemia)
Procedure: as §1

T-47D (Breast cancer) = test: Sulforhodamine B cytotoxicity assay; format: cell-based; conditions: Homo sapiens, T47D, 48 h, read-out: Human cancer cell lines IC50 T-47D (Breast cancer)
Procedure: as §1

[1] = system: Ehrlich Ascites Carcinoma (EAC); format: in vivo, Swiss mice
Procedure: Ehrlich ascites carcinoma (EAC) cells were collected from the peritoneal cavity of the Swiss mice harbouring 8-10 days old ascitic tumor. 1x10^7 EAC cells were injected intraperitoneally in Swiss mice selected for the experiment on day 0. The next day, animals were randomized and divided into different groups. The treatment groups contained 7 animals each and control group contained 10 animals. The treatment group was treated with 20 mg/kg of Compound 2 intra-peritoneally from day 1-9. One more of the treatment group received 5-fluorouracil (20 mg/kg, i.p) and it served as positive control. The tumor bearing control group was similarly administered normal saline (0.2 ml, i.p.). On day 12, animals were sacrificed and ascitic fluid was collected from peritoneal cavity of each mouse for the evaluation of tumor growth. Percent tumor growth inhibition was calculated based on the total number of tumor cells present in the peritoneal cavity as on day 12 of the experiment using the following formula. Percent tumor growth inhibition = (Av.no.of cells in control group−Av.no.of cells in treated group)/(Av.no.of cells in control group) × 100 [formula]

COc1cc(C2c3c(cc(OC)c(OC)c3OC)C(=O)C2Cc2ccc3c(c2)OCO3)cc(OC)c1OC (centres unmarked) [Compound 2, 2-(3",4"-methylenedioxybenzyl)-3-(3',4',5'-trimethoxyphenyl)-4,5,6-trimethoxy-indan-1-one]
Day 13 Av. Tumor weights (Ehrlich Tumor (solid); 20 mg/kg i/p day 1-9, Day 13): 1178.35 ± 32.72 mg | %Tumor Growth Inhibition (Ehrlich Tumor (solid); 20 mg/kg i/p day 1-9, day 13): 42.77% and 42.771% | Mortality (Ehrlich Tumor (solid); 20 mg/kg i/p day 1-9, dead/total animals): 0/7 | Day 13 Av. Body weights (Ehrlich Tumor (solid); 20 mg/kg i/p day 1-9, male Swiss mice, Day 13): 23.28 g | Av. Body weights (g) of animals on days 1 (Ehrlich Tumor (solid); 20 mg/kg i/p day 1-9, male Swiss mice, day 1): 21.42 g | better activity (in-vivo) over the parent compound 12 (Ehrlich Tumor (solid); solid tumour, 20mg/kg dose, relative to compound 12): 19.1% | IC50 (HCT-116 (Colon)): 3 µM | IC50 (THP-1 (Leukemia)): 1 µM | IC50 (T-47D (Breast cancer)): < 1 µM | %Tumor Growth Inhibition ([1]; 20 mg/kg i/p day 1-9, Day 12): 67.64% | Av, Volume of ascitic fluid ([1]; 20 mg/kg i/p day 1-9, Day 12): 6.31 mL | Av. No. of tumor cells ([1]; 20 mg/kg i/p day 1-9, Day 12): 44.78 x 10^7 | Av. Weight of ascitic fluid ([1]; 20 mg/kg i/p day 1-9, Day 12): 6.02 g | % Tumor cell growth ([1]; 20 mg/kg i/p day 1-9, Day 12, control = 100): 32.36% | Mortality ([1]; 20 mg/kg i/p day 1-9, Day 12, dead/total animals): 0/7 | Body weight Day 1 ([1]; 20 mg/kg i/p day 1-9, EAC-bearing female Swiss mice, Day 1): 21.0 g | Body weight Day 5 ([1]; 20 mg/kg i/p day 1-9, EAC-bearing female Swiss mice, Day 5): 21.86 g | Body weight Day 9 ([1]; 20 mg/kg i/p day 1-9, EAC-bearing female Swiss mice, Day 9): 22.28 g | Body weight Day 12 ([1]; 20 mg/kg i/p day 1-9, EAC-bearing female Swiss mice, Day 12): 22.66 g | better activity (in-vivo) over the parent compound 12 ([1]; Ehrlich ascites carcinoma, 20mg/kg dose, relative to compound 12): 48.72%
